Measurements: patent US9688627B2, “Lactam compounds as EP4 receptor-selective agonists for use in the treatment of EP4-mediated diseases and conditions” (Cayman Chemical Company, Inc., priority 2013, dated 2017)

Experiments:
[1] = target: T1, Human Prostanoid EP4 Receptor (Homo sapiens, UniProt P35408); test: Radioligand binding assay, agonist site of human prostanoid EP4 receptor in transfected HEK-293 cells; conditions: for inhibition at 0.1 µM: 2 h, pH 6, read-out: hEP4 receptor binding, % @ 100 nM, @ 100 nM test compound; for IC50: read-out: hEP4 receptor binding IC50; for Ki: read-out: hEP4 receptor binding Ki
T1 construct: expressed in transfected cells; host or cells: HEK-293 cells (cell membrane homogenates)
Procedure: Radioligand Binding Assay for the Evaluation of the Affinity of Compounds for the Agonist Site of the Human Prostanoid EP4 Receptor in Transfected HEK-293 Cells
Following incubation, the samples are filtered rapidly under vacuum through glass fiber filters (GF/B, Packard) presoaked with 0.3% PEI and rinsed several times with ice-cold 50 mM Tris-HCl using a 96-sample cell harvester (Unifilter, Packard). The filters are dried then counted for radioactivity in a scintillation counter (Topcount, Packard) using a scintillation cocktail (Microscint 0, Packard).

[2] = target: T2, rat EP2 receptor (Rattus norvegicus, UniProt Q62928); test: SEAP activity assay on EP2 STEP plate; assay type: cell-based; conditions: SEAP luminescence, 6-8 hours of stimulation; read-out: STEP cell functional assay EC50 SEAP/EP2
T2 construct: cells seeded on STEP plates
Source text: (§1) 2. […] In addition each concentration had triplicates. […] 4. […] Cover the plate with the lid. […] 6. […] 7. […] 8.

[3] = target: T3, rat EP4 receptor (Rattus norvegicus, UniProt P43114); test: SEAP activity assay on EP4 STEP plate; assay type: cell-based; conditions: SEAP luminescence, 6-8 hours of stimulation; read-out: STEP cell functional assay EC50 SEAP/EP4
T3 construct: cells seeded on STEP plates
Source text: as §1

[4] = target: T3, rat EP4 receptor; test: cAMP level assay on EP4 STEP plate; assay type: cell-based; conditions: cAMP by ELISA, 30 minutes, 500 μM IBMX; read-out: STEP cell functional assay EC50 cAMP/EP4
Source text: Functional Cellular Assays (STEP Plate Format)
Procedure of cAMP Assay for EP2/EP4 Agonist
3. […] In addition each concentration had triplicates.
6. Aspirate the supernatant.

[5] = system: calvarial bone defect; test: Rat calvarial defect model; assay type: in vivo, female Sprague Dawley rats; conditions: 3 mg/ml in calcium phosphate cement/demineralized bone matrix, eight weeks, values only in FIG. 1
Procedure: The rat calvarial defect model is a widely used model through which the ability of a treatment agent to induce bone formation is assessed (Aghaloo et al., The effect of NELL1 and bone morphogenetic protein-2 on calvarial bone regeneration, J. Oral Maxillofac. Surg., 2010, 68, 300-308; Mark et al., Repair of calvarial nonunions by osteogenin, a bone-inductive protein, Plast. Reconstr. Surg., 1990, 86, 623-30). Bone defects are created by removal of bone from the cranium of female Sprague Dawley rats by a bone trephine (cranial defect). Cranial defects are 2.6 mm in diameter and the cranium approximately 1 mm thick. A matrix of approximately 2 mm thickness is applied to the defect. Thus the dosing volume for each defect is calculated as π*r^2*matrix thickness=3.14*1.3^2*2=10.61 μl and rounded to 11 μl for purposes of dose calculation. Example 2E is delivered set inside calcium phosphate cement that, after loading with drug and setting, is ground to a fine powder and suspended in demineralized bone matrix at a ratio of 1:8 (weight/volume). Example 2E is tested at one dose of 3 mg/ml with five rats in the test group. […] The area measured at eight weeks was compared to the area of the original defect and the degree of repair calculated by the following formula: (original area-current area)/original area*100 The mean repair for each group after eight weeks of treatment is shown in the FIG. 1.

T3 sequence (P43114 whole entry): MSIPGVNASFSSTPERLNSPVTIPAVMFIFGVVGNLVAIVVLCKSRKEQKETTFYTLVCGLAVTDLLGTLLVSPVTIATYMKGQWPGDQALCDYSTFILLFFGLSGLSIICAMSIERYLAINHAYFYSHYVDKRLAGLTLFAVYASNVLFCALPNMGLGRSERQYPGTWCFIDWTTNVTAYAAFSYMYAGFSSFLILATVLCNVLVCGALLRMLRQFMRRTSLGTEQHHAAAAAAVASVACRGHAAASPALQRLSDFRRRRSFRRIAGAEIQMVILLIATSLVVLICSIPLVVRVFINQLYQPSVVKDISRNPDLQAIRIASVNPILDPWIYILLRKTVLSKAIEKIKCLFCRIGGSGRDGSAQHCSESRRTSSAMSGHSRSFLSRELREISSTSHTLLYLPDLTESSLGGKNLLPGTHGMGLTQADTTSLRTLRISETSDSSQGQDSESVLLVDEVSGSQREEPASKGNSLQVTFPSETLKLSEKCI
T1 sequence (P35408 whole entry): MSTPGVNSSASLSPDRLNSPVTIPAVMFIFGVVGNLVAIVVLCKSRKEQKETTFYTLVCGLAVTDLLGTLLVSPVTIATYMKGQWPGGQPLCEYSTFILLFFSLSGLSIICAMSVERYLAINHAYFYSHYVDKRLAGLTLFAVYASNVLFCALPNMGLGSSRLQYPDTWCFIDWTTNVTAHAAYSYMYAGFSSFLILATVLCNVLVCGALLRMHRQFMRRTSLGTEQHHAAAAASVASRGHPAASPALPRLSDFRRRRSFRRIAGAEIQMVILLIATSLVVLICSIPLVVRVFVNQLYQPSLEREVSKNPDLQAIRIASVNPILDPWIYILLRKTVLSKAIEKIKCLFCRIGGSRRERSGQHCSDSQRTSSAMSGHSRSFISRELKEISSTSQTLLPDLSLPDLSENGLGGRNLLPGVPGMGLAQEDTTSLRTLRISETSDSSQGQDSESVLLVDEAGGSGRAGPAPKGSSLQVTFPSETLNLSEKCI
T2 sequence (Q62928 whole entry): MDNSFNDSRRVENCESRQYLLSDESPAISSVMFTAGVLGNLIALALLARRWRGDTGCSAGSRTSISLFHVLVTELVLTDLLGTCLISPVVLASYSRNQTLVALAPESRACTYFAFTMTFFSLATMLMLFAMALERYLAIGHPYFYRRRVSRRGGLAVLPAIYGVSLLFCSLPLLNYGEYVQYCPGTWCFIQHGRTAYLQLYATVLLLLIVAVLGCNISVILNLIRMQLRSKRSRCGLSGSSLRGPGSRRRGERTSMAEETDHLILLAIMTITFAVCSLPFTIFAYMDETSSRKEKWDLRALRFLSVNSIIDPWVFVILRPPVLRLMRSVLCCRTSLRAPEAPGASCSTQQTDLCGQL

| Compound | inhibition at 0.1 µM [1] [%] | EC50 [2] [nM] | EC50 [3] [nM] | IC50 [1] [nM] | Ki [1] [nM] | EC50 [4] [nM] | melting point [°C] | Healing of a calvarial bone defect [5] |
| --- | --- | --- | --- | --- | --- | --- | --- | --- |
| CC#CCC(C)[C@H](O)/C=C/[C@H]1CCC(=O)N1CCCCCCC(=O)O (mixture of isomers) [Example 1C, 7-((2R)-2-((3S,4R/S,E)-3-hydroxy-4-methyloct-1-en-6-yn-1-yl)-5-oxopyrrolidin-1-yl)heptanoic acid] | 86 | 760 | 0.67 | – | – | – | – | – |
| CC#CCC(C)[C@@H](O)/C=C/[C@H]1CCC(=O)N1CCCCCCC(=O)O (mixture of isomers) [Example 1D, 7-((2R)-2-((3R,4R/S,E)-3-hydroxy-4-methyloct-1-en-6-yn-1-yl)-5-oxopyrrolidin-1-yl)heptanoic acid] | 11 | > 10000 | 4.82 | – | – | – | – | – |
| CCC#CCC(C)[C@H](O)/C=C/[C@H]1CCC(=O)N1CCCCCCC(=O)O (mixture of isomers) [Example 2C, 7-((2R)-2-((3S,4R/S,E)-3-hydroxy-4-methylnon-1-en-6-yn-1-yl)-5-oxopyrrolidin-1-yl)heptanoic acid] | – | 905 | 0.064 | 4 | 1.5 | – | – | – |
| CC#CCC(C)[C@H](O)/C=C/[C@H]1CCC(=O)N1CCc1ccc(C(=O)O)cc1 (mixture of isomers) [Example 8C, 4-(2-((2R)-2-((3S,4R/S,E)-3-hydroxy-4-methyloct-1-en-6-yn-1-yl)-5-oxopyrrolidin-1-yl)ethyl)benzoic acid] | – | 120 | 0.19 | 1.3 | 0.47 | – | – | – |
| CC#CC[C@H](C)[C@H](O)/C=C/[C@H]1CCC(=O)N1CCCCCCC(=O)O [Example 1E, 7-((R)-2-((3S,4S,E)-3-hydroxy-4-methyloct-1-en-6-yn-1-yl)-5-oxopyrrolidin-1-yl)heptanoic acid] | – | 800 | 0.57 | 3.9 | 1.5 | 2.98 | 113 to 114 | – |
| CC#CC[C@@H](C)[C@H](O)/C=C/[C@H]1CCC(=O)N1CCCCCCC(=O)O [Example 1F, 7-((R)-2-((3S,4R,E)-3-hydroxy-4-methyloct-1-en-6-yn-1-yl)-5-oxopyrrolidin-1-yl)heptanoic acid] | – | 184 | 5.79 | 18 | 6.9 | – | 100 to 101 | – |
| CCC#CC[C@H](C)[C@H](O)/C=C/[C@H]1CCC(=O)N1CCCCCCC(=O)O [Example 2E, 7-((R)-2-((3S,4S,E)-3-hydroxy-4-methylnon-1-en-6-yn-1-yl)-5-oxopyrrolidin-1-yl)heptanoic acid] | – | – | 0.19 ± 0.07 | 3 | 1.1 | 0.96 ± 0.46 | – | Accelerated Healing |
| CCC#CC[C@H](C)[C@H](O)/C=C/[C@H]1CCC(=O)N1CCc1ccc(C(=O)O)cc1 [Example 9C, 4-(2-((R)-2-((3S,4S,E)-3-hydroxy-4-methylnon-1-en-6-yn-1-yl)-5-oxopyrrolidin-1-yl)ethyl)benzoic acid] | – | – | 0.02 | 0.67 | 0.25 | 0.31 | – | – |
| CCC#CC[C@H](C)[C@H](O)/C=C/[C@H]1CCC(=O)N1CCCc1ccc(C(=O)O)s1 [Example 17D, 5-(3-((R)-2-((3S,4S,E)-3-hydroxy-4-methylnon-1-en-6-yn-1-yl)-5-oxopyrrolidin-1-yl)propyl)thiophene-2-carboxylic acid] | – | 5300 | 0.32 | 6.1 | 2.3 | 1.54 | – | – |
| CC(CC#Cc1ccccc1)[C@H](O)/C=C/[C@H]1CCC(=O)N1CCCc1ccc(C(=O)O)s1 (stereo partly drawn) [Example 18C, 5-(3-((2R)-2-((3S,E)-3-hydroxy-4-methyl-7-phenylhept-1-en-6-yn-1-yl)-5-oxopyrrolidin-1-yl)propyl)thiophene-2-carboxylic acid] | – | > 10000 | < 0.01 | – | – | – | – | – |
| CC(CC#Cc1ccccc1)[C@@H](O)/C=C/[C@H]1CCC(=O)N1CCCc1ccc(C(=O)O)s1 (stereo partly drawn) [Example 18D, 5-(3-((2R)-2-((3R,E)-3-hydroxy-4-methyl-7-phenylhept-1-en-6-yn-1-yl)-5-oxopyrrolidin-1-yl)propyl)thiophene-2-carboxylic acid] | – | > 10000 | 2.03 | – | – | – | – | – |
